Series [1] concerns the target T1, ITK (Tyrosine-protein kinase ITK/TSK) (Homo sapiens, UniProt Q08881).
T1 sequence (Q08881 whole entry): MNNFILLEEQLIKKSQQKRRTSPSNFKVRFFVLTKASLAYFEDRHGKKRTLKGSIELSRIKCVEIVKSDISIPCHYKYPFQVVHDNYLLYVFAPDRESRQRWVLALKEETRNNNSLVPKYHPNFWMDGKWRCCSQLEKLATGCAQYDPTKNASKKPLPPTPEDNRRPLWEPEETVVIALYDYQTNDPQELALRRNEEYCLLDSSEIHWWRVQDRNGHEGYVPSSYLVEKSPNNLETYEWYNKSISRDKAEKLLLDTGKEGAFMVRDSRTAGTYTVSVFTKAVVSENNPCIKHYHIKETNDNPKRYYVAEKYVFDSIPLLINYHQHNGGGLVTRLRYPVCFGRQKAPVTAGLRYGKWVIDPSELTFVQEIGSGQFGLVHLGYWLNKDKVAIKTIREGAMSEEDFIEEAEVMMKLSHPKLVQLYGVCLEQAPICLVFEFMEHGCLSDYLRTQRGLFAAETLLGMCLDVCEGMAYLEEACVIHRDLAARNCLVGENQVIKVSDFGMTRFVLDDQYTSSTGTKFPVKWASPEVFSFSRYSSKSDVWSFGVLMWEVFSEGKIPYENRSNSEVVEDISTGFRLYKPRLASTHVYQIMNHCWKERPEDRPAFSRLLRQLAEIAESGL
The series is described as follows: Inhibition of recombinant human GST-tagged full length ITK expressed in baculovirus expression system at 100 nM using Tyr01 peptide as substrate incubated for 1 hr by Z'lyte assay relative to control. The note with it: probe Tyr01 peptide.

A further series has as its system RAW264.7. Nature of the series: Cytotoxicity against mouse RAW264.7 cells assessed as reduction in cell viability at 10 uM measured after 72 hrs by MTS assay. The note with it: raw264.7, 72 h. Format: cell-based.
Series [2] can be described thus: Toxicity in Balb/c mouse model of oxazolone-induced delayed type hypersensitivity assessed as change in microscopic examination up to 30 mg/kg, po. Format: organism-based. The settings on record: in vivo.
In series [3] the test system is Mus musculus. The series is described as follows: Immunosuppressive activity in po dosed Balb/c mouse model of oxazolone-induced delayed type hypersensitivity assessed as reduction in ear swelling measured after 7 days. Format: functional, organism-based. The note with it: time 7.0 day.
The target in series [4] is T2, Tyrosine-protein kinase JAK3 (Mus musculus) (UniProt Q62137).
T2 sequence (whole entry): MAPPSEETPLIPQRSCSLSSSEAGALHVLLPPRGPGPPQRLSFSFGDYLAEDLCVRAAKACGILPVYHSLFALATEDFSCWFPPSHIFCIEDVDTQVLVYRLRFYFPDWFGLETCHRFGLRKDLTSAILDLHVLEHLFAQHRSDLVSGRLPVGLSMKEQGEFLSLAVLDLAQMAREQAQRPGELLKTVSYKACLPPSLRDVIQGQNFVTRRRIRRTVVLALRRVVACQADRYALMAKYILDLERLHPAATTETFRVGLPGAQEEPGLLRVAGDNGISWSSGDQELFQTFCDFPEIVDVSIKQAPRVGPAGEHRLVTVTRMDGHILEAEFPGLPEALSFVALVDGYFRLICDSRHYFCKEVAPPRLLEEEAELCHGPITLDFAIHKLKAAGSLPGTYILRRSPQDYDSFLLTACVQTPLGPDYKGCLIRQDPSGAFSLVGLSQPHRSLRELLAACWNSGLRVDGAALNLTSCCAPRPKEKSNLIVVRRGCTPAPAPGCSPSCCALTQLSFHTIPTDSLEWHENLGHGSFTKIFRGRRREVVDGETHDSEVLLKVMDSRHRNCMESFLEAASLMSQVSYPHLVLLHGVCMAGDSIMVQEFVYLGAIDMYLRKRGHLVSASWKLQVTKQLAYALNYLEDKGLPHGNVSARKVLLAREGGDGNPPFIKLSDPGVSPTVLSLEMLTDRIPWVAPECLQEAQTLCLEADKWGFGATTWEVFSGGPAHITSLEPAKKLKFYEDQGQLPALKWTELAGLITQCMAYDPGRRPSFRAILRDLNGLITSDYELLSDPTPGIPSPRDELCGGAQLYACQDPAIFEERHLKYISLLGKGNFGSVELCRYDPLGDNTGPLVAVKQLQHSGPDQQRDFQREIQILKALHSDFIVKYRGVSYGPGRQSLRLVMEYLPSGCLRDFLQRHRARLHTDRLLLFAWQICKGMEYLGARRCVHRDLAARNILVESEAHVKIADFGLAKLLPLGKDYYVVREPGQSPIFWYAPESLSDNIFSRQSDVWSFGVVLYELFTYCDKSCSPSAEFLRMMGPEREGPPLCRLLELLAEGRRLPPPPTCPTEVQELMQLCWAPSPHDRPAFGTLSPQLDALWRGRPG
The series is described as follows: Inhibition of JAK3 in anti-CD3/-CD28 coated mouse T cells assessed as reduction in IL15-induced STAT5 phosphorylation at 10 uM preincubated for 1 hr followed by […] and measured after 30 mins by Western blot analysis. The settings on record: T cell.

A short description of series [5]: MRT (0 to t) in ICR mouse at 10 mg/kg, iv administered as single dose by LC-MS/MS analysis. Format: ADME, organism-based. The note with it: in vivo.
A short description of series [6]: AUC (0 to t) in ICR mouse at 30 mg/kg, po administered as single dose via gavage by LC-MS/MS analysis. Format: ADME, organism-based. Also noted: dose 30 mg/kg. The settings on record: in vivo.
Series [7] has as its system Mus musculus. The series is described as follows: Immunosuppressive activity in Balb/c mouse model of oxazolone-induced delayed type hypersensitivity assessed as reduction in ear swelling at 30 mg/kg, po measured after 7 days. It counts as functional, organism-based. The settings on record: time 7.0 day.
Series [8] is described as follows: AUC (0 to infinity) in ICR mouse at 10 mg/kg, iv administered as single dose by LC-MS/MS analysis. Format: ADME, organism-based. Set-up: route intravenous, time infinity, dose 10 mg/kg. The note with it: in vivo.
Series [9] has as its target Non-receptor tyrosine-protein kinase TYK2 (Homo sapiens, UniProt P29597). Nature of the series: Inhibition of recombinant human N-terminal GST-tagged TYK2 cytoplasmic domain (833 to 1187 residues) expressed in baculovirus expression system using TK-substrate-biotin preincubated for 5 mins followed by substrate addition and measured after 30 mins by HTRF assay.
Series [10] in a line: Cmax in ICR mouse at 30 mg/kg, po administered as single dose via gavage by LC-MS/MS analysis. Format: ADME, organism-based. Also noted: route oral, dose 30 mg/kg. The note with it: in vivo.
In series [11] the target is BTK (Tyrosine-protein kinase BTK) (Homo sapiens, UniProt Q06187). The series is described as follows: Inhibition of recombinant human His-tagged full length BTK expressed in baculovirus expression system at 100 nM using Tyr01 peptide as substrate incubated for 1 hr by Z'lyte assay relative to control. The settings on record: probe Tyr01 peptide.
BTK (Tyrosine-protein kinase BTK), sequence (Q06187 whole entry): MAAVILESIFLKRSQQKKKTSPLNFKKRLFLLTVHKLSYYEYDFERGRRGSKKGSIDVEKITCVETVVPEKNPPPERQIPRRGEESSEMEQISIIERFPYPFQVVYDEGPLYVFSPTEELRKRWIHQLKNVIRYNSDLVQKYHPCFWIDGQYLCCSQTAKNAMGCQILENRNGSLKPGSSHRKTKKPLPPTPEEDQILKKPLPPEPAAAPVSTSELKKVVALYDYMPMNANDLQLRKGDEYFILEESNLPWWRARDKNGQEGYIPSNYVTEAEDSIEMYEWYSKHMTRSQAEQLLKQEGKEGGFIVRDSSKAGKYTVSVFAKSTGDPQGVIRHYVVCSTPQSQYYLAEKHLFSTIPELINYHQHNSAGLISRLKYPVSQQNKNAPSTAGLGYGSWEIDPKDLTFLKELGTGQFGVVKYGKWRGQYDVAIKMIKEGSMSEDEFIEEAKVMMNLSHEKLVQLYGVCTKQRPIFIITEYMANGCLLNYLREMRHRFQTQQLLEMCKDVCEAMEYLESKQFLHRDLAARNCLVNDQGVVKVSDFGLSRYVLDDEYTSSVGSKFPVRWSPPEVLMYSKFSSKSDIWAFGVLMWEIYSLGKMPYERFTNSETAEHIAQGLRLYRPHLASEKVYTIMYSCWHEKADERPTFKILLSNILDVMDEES
Series [12] can be described thus: AUC (0 to infinity) in ICR mouse at 30 mg/kg, po administered as single dose via gavage by LC-MS/MS analysis. Also noted: time infinity, route oral, dose 30 mg/kg. It counts as ADME, organism-based. The settings on record: in vivo.
Series [13] can be described thus: Terminal half life in ICR mouse at 10 mg/kg, iv administered as single dose by LC-MS/MS analysis. Format: ADME, organism-based. The note with it: in vivo, read-out: beta t1/2 (converted).
Series [14] is described as follows: Apparent volume of distribution in ICR mouse at 10 mg/kg, iv administered as single dose by LC-MS/MS analysis. It counts as ADME, organism-based. The note with it: in vivo, read-out: Vz.
Series [15] is described as follows: Cytotoxicity against resting mouse T cells assessed as reduction in cell viability at 10 uM measured after 72 hrs by MTS assay. Format: cell-based.

Consider one molecule from ChEMBL document CHEMBL4680201, “Design, synthesis, and pharmacological evaluation of 4- or 6-phenyl-pyrimidine derivatives as novel and selective Janus kinase 3 inhibitors” (Eur J Med Chem, 2020).

Each structure is given as a SMILES string. Calls of active or inactive are those of the source. The rule behind the calls is not given here.

Non-receptor tyrosine-protein kinase TYK2, sequence (P29597 whole entry, the tested form may be a part): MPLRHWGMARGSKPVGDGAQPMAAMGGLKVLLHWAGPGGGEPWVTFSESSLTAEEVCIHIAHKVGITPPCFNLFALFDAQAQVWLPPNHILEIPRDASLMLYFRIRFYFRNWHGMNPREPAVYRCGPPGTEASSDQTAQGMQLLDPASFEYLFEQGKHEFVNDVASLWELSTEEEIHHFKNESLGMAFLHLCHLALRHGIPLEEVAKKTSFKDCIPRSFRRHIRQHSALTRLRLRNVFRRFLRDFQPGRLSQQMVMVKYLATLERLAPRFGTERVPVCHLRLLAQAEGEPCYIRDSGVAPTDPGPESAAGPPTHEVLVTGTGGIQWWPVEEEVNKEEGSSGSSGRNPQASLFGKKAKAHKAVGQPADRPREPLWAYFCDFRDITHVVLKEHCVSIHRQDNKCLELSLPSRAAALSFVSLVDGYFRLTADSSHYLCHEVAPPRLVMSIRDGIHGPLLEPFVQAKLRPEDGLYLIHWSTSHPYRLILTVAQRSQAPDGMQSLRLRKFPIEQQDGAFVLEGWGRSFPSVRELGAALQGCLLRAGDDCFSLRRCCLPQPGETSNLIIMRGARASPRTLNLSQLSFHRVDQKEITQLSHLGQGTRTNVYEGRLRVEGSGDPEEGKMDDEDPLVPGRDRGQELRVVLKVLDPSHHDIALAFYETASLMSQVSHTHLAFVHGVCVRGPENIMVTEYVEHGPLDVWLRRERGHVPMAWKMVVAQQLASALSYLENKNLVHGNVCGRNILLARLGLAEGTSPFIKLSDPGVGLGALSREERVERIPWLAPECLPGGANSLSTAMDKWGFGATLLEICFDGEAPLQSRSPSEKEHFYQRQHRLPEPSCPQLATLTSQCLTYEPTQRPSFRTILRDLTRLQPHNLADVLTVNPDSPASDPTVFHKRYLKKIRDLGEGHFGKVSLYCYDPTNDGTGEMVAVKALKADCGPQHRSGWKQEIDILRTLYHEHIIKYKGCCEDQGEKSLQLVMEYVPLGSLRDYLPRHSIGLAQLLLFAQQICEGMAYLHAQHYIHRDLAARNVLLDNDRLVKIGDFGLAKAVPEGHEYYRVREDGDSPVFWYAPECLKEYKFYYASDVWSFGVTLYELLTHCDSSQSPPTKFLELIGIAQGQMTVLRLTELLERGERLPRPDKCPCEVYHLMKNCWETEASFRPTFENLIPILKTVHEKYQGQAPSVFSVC

Consider `C=CC(=O)Nc1ccc(-c2ccnc(Nc3ccc(N4CCOCC4)cc3)n2)cc1`, for which the inhibition at 1 h, 0.1 µM in series [1] was determined as 2.3%; in series [11], 6.3%. Also, the Activity entry in the series on RAW264.7 is “Non-Toxic”; in series [2] it was “Non-Toxic”; in the series with Mus musculus [3], “Dose-dependent effect”; in series [15], “Non-Toxic”. In addition, the inhibition result in [4] was “Active”. In series [5], this molecule displayed an MRT last of 43.8 min. Further, the AUC(0-t) in series [6] stood at 0.889 µg·h/mL. Also, the outcome in the series with Mus musculus [7] was Active. The same molecule returned an AUC(0-inf) in series [8] of 1.27 µg·h/mL. Also, the IC50 in series [9] was 2.78 µM. The molecule also came in with a Cmax in series [10] of 2.01 µg/mL. In series [12], this molecule came in with an AUC of 0.89712 µg·h/mL. The half-life in series [13] is 28.2 min. Moreover, the Vd in series [14] is 8.36 L/kg.
